Measurements as given in ChEMBL document CHEMBL5608180, “DNA G-quadruplexes in the genome of Trypanosoma cruzi as potential therapeutic targets for Chagas disease: Dithienylethene ligands as effective antiparasitic agents” (Eur J Med Chem, 2024).
Calls of active or inactive are those of the source. The calls are words filed in the database; no cut-off is given here.

Legend:
Trypanosoma cruzi [1] = assay: Antiparasitic activity against epimastigote form of Trypanosoma cruzi Y(TcII) assessed as inhibition of parasite growth incubated for 96 hrs followed by incubation with resazurin for 4 to 6 hrs by resazurin dye based fluorescence analysis; assay type: functional, organism-based
Trypanosoma cruzi [2] = assay: Antiparasitic activity against epimastigote form of Trypanosoma cruzi SOL(TcV) assessed as inhibition of parasite growth incubated for 96 hrs followed by incubation in dark with resazurin for 4 to 6 hrs by resazurin dye based fluorescence analysis; assay type: functional, organism-based
Trypanosoma cruzi [3] = assay: Antiparasitic activity against epimastigote form of Trypanosoma cruzi BM Lopez (TcIa) assessed as inhibition of parasite growth incubated for 96 hrs followed by incubation with resazurin for 4 to 6 hrs by resazurin dye based fluorescence analysis; assay type: functional, organism-based
Trypanosoma cruzi [4] = assay: Antiparasitic activity against epimastigote form of Trypanosoma cruzi DA (TcI) assessed as inhibition of parasite growth incubated for 96 hrs followed by incubation with resazurin for 4 to 6 hrs by resazurin dye based fluorescence analysis; assay type: functional, organism-based
[5] = Cytotoxicity against human MRC5 cells; assay type: toxicity, cell-based
[6] = Selectivity index, ratio of IC50 for cytotoxicity against human MRC5 cells to IC50 for antiparasitic activity against epimastigote form of Trypanosoma cruzi Y (TcII); assay type: toxicity, cell-based; details: read-out: Ratio IC50
[7] = Selectivity index, ratio of IC50 for cytotoxicity against human MRC5 cells to IC50 for antiparasitic activity against epimastigote form of Trypanosoma cruzi SOL (TcV); assay type: toxicity, cell-based; details: read-out: Ratio IC50
[8] = Selectivity index, ratio of IC50 for cytotoxicity against human MRC5 cells to IC50 for antiparasitic activity against epimastigote form of Trypanosoma cruzi BM Lopez (TcIa); assay type: toxicity, cell-based; details: read-out: Ratio IC50
[9] = Selectivity index, ratio of IC50 for cytotoxicity against human MRC5 cells to IC50 for antiparasitic activity against epimastigote form of Trypanosoma cruzi DA (TcI); assay type: toxicity, cell-based; details: read-out: Ratio IC50
Trypanosoma cruzi [10] = assay: Antiparasitic activity against trypomastigote form of Trypanosoma cruzi SOL (MHOM/ES/2008/SOL; DTU V) assessed as inhibition of parasite growth incubated for 96 hrs followed by incubation in dark with resazurin for 4 to 6 hrs by resazurin dye based fluorescence analysis; assay type: functional, organism-based
[11] = Selectivity index, ratio of IC50 for cytotoxicity against human MRC5 cells to IC50 for antiparasitic activity against trypomastigote form of Trypanosoma cruzi SOL (TcV); assay type: toxicity, cell-based; details: read-out: Ratio IC50
Quadruplex DNA [12] = assay: Stabilization of Trypanosoma cruzi G-quadruplex RCr DNA (FAM-5'-GGGGACGGGAATGGGGGTGCATGAGGGG-3'-TAMRA) assessed as change in apparent melting temperature at 5 uM by FRET melting analysis; assay type: nucleic-acid assay
Quadruplex DNA [13] = assay: Stabilization of Trypanosoma cruzi G-quadruplex MCr DNA (FAM-5'-GTGGAGGGGGAGGGTCATGGGG-3'-TAMRA) assessed as change in apparent melting temperature at 5 uM by FRET melting analysis; assay type: nucleic-acid assay
Quadruplex DNA [14] = assay: Stabilization of Trypanosoma cruzi G-quadruplex TCr DNA (FAM-5'-GGGAGGGACGGATGGGCAGAAACGGG-3'-TAMRA) assessed as change in apparent melting temperature at 5 uM by FRET melting analysis; assay type: nucleic-acid assay
Quadruplex DNA [15] = assay: Stabilization of human telomere G-quadruplex F21T DNA (FAM-5'-GGGTTAGGGTTAGGGTTAGGG-3'-TAMRA) assessed as change in apparent melting temperature at 5 uM by FRET melting analysis; assay type: nucleic-acid assay
Quadruplex DNA [16] = assay: Stabilization of human proto-oncogene G-quadruplex MYC DNA (FAM-5'-TTGAGGGTGGGTAGGGTGGGTAA-3'-TAMRA) assessed as change in apparent melting temperature at 5 uM by FRET melting analysis; assay type: nucleic-acid assay
dsDNA [17] = assay: Binding affinity to human duplex FdxT DNA (FAM-5'-TATAGCTAT-peg-TATAGCTATA-3'-TAMRA) at 5 uM by FRET melting analysis; assay type: nucleic-acid assay
Quadruplex DNA [18] = assay: Stabilization of Trypanosoma cruzi G-quadruplex RCr DNA (FAM-5'-GGGGACGGGAATGGGGGTGCATGAGGGG-3'-TAMRA) at 10 uM by FRET melting analysis; assay type: nucleic-acid assay
Quadruplex DNA [19] = assay: Stabilization of human telomere G-quadruplex F21T DNA (FAM-5'-GGGTTAGGGTTAGGGTTAGGG-3'-TAMRA) at 5 uM in presence of 1 to 10 uM double stranded ds26 DNA by FRET melting analysis; assay type: nucleic-acid assay
Quadruplex DNA [20] = assay: Stabilization of Trypanosoma cruzi G-quadruplex RCr DNA (FAM-5'-GGGGACGGGAATGGGGGTGCATGAGGGG-3'-TAMRA) at 5 uM in presence of 1 to 10 uM double stranded ds26 DNA by FRET melting analysis; assay type: nucleic-acid assay
Quadruplex DNA [21] = assay: Binding affinity to Trypanosoma cruzi G-quadruplex RCr DNA (FAM-5'-GGGGACGGGAATGGGGGTGCATGAGGGG-3'-TAMRA) assessed as broadening of imino proton signals with delta shift at 1 equiv. by 1H-NMR analysis; assay type: nucleic-acid assay
Quadruplex DNA [22] = assay: Binding affinity to Trypanosoma cruzi G-quadruplex MCr DNA (FAM-5'-GTGGAGGGGGAGGGTCATGGGG-3'-TAMRA) assessed as broadening of imino proton signals at 1 equiv. by 1H-NMR analysis; assay type: nucleic-acid assay
Quadruplex DNA [23] = assay: Binding affinity to Trypanosoma cruzi G-quadruplex TCr DNA (FAM-5'-GGGAGGGACGGATGGGCAGAAACGGG-3'-TAMRA) assessed as broadening of imino proton signals at 1 equiv. by 1H-NMR analysis; assay type: nucleic-acid assay
Quadruplex DNA [24] = assay: Binding affinity to Trypanosoma cruzi G-quadruplex RCr DNA (FAM-5'-GGGGACGGGAATGGGGGTGCATGAGGGG-3'-TAMRA) assessed as increase in melting temperature at DNA:compound concentration ratio of 1:2 by CD melting assay; assay type: nucleic-acid assay
Quadruplex DNA [25] = assay: Binding affinity to Trypanosoma cruzi G-quadruplex MCr DNA (FAM-5'-GTGGAGGGGGAGGGTCATGGGG-3'-TAMRA) at DNA:compound concentration ratio of 1:1 to 1:2 by CD melting assay; assay type: nucleic-acid assay
Quadruplex DNA [26] = assay: Binding affinity to Trypanosoma cruzi G-quadruplex RCr DNA (FAM-5'-GGGGACGGGAATGGGGGTGCATGAGGGG-3'-TAMRA) assessed as decrease in absorption with shift to higher wavelength at 30 uM by UV-Vis spectrophotometric analysis; assay type: nucleic-acid assay
Quadruplex DNA [27] = assay: Binding affinity to Trypanosoma cruzi G-quadruplex MCr DNA (FAM-5'-GTGGAGGGGGAGGGTCATGGGG-3'-TAMRA) assessed as decrease in absorption with shift to higher wavelength at 30 uM by UV-Vis spectrophotometric analysis; assay type: nucleic-acid assay
dsDNA [28] = assay: Binding affinity to double stranded ds26 DNA (unknown origin) assessed as decrease in absorbance with shift to lower wavelength at 30 uM by UV-Vis spectrophotometric analysis; assay type: nucleic-acid assay
Trypanosoma cruzi [29] = assay: Potency index, ratio of Benznidazole IC50 to test compound IC50 for antiparasitic activity against trypomastigote form of Trypanosoma cruzi SOL (MHOM/ES/2008/SOL; DTU V) by resazurin dye based fluorescence analysis; assay type: functional
Quadruplex DNA [30] = assay: Binding affinity to Trypanosoma cruzi G-quadruplex RCr DNA (FAM-5'-GGGGACGGGAATGGGGGTGCATGAGGGG-3'-TAMRA) assessed as decrease in absorption with shift to higher wavelength at 25 uM by UV-Vis spectrophotometric analysis; assay type: nucleic-acid assay
Quadruplex DNA [31] = assay: Binding affinity to Trypanosoma cruzi G-quadruplex MCr DNA (FAM-5'-GTGGAGGGGGAGGGTCATGGGG-3'-TAMRA) assessed as decrease in absorption with shift to higher wavelength at 25 uM by UV-Vis spectrophotometric analysis; assay type: nucleic-acid assay
dsDNA [32] = assay: Binding affinity to double stranded ds26 DNA (unknown origin) assessed as decrease in absorbance with shift to lower wavelength at 25 uM by UV-Vis spectrophotometric analysis; assay type: nucleic-acid assay
[33] = Drug uptake in epimastigote form of Trypanosoma cruzi BM Lopez at 20 uM measured after 2 hrs by fluorescence microscopy; assay type: ADME
[34] = Drug uptake in epimastigote form of Trypanosoma cruzi BM Lopez assessed as localization in kinetoplast and nucleus at 20 uM measured after 4 hrs by fluorescence microscopy; assay type: ADME
[35] = Drug uptake in epimastigote form of Trypanosoma cruzi BM Lopez assessed as localization in kinetoplast and nucleus at 20 uM measured after 24 hrs by fluorescence microscopy; assay type: ADME

SMILES	IC50 (Trypanosoma cruzi [1]) [µM]	IC50 (Trypanosoma cruzi [2]) [µM]	IC50 (Trypanosoma cruzi [3]) [µM]	IC50 (Trypanosoma cruzi [4]) [µM]	IC50 [5] [µM]	selectivity ratio [6]	selectivity ratio [7]	selectivity ratio [8]	selectivity ratio [9]	IC50 (Trypanosoma cruzi [10]) [µM]	selectivity ratio [11]	ΔTm (Quadruplex DNA [12]) [°C]	ΔTm (Quadruplex DNA [13]) [°C]	ΔTm (Quadruplex DNA [14]) [°C]	ΔTm (Quadruplex DNA [15]) [°C]	ΔTm (Quadruplex DNA [16]) [°C]	Activity (dsDNA [17])	Activity (Quadruplex DNA [18])	Activity (Quadruplex DNA [19])	Activity (Quadruplex DNA [20])	other results
C[C@]12SC(c3ccc4cccnc4c3)=CC1=C1CCCC1=C1C=C(c3ccc4cccnc4c3)S[C@@]12C	20.9	22.3	40.7	20.6	82.5	3.9	3.7	2	4	3.3	25	17	14	17	17	17	inactive	Active	Active	Active	Activity (Quadruplex DNA [21]): Active; Activity (Quadruplex DNA [22]): Active; Activity (Quadruplex DNA [23]): Active; ΔTm (Quadruplex DNA [24]): 3.81 °C; Activity (Quadruplex DNA [25]): Active; Activity (Quadruplex DNA [26]): Active; Activity (Quadruplex DNA [27]): Active; Activity (dsDNA [28]): inactive; Ratio IC50 (Trypanosoma cruzi [29]): 17
Cc1sc(-c2cccc3cc[n+](C)cc23)cc1C1=C(c2cc(-c3cccc4cc[n+](C)cc34)sc2C)CCC1.[I-].[I-]	19.5	20.8	30.1	21.2	61.4	3.1	2.9	2	2.9	1.5	40.9	17	14	17	17	17	inactive	Active	Active	Active	Activity (Quadruplex DNA [21]): Active; Activity (Quadruplex DNA [22]): Active; Activity (Quadruplex DNA [23]): Active; ΔTm (Quadruplex DNA [24]): 6.98 °C; Activity (Quadruplex DNA [25]): Active; Activity (Quadruplex DNA [30]): Active; Activity (Quadruplex DNA [31]): Active; Activity (dsDNA [32]): inactive; Drug uptake [33]: Active; Drug uptake [34]: Active; Drug uptake [35]: Active; Ratio IC50 (Trypanosoma cruzi [29]): 38
